Consider 13 compounds from patent US6395766B1, “Tetrahydroindolone derivatives as gabaaalpha5 ligands for enhancing cognition” (Merck Sharp & Dohme Limited, priority 1998, dated 2002).

Consider `CC1(C)CC(=O)c2c(-c3cncs3)cn(-c3ccccn3)c2C1` [Example 21, 6,6-Dimethyl-1-(pyridin-2-yl)-3-(thiazol-5-yl)-4,5,6,7-tetrahydroindol-4-one], for which the melting point lay in the range of 167 to 169 °C.
The compound `CCc1cn(-c2nccs2)c2c1C(=O)CC(C)(C)C2` [Example 5, 6,6-Dimethyl-3-ethyl-1-(thiazol-2-yl)-4,5,6,7-tetrahydroindol-4-one] yielded a melting point of 58 to 60 °C.
Then `CC1(C)CC(=O)c2c(-c3nccs3)cn(-c3ccccn3)c2C1` [Example 15, 6,6-Dimethyl-1-(pyridin-2-yl)-3-(thiazol-2-yl)-4,5,6,7-tetrahydroindol-4-one], with 166 to 168 °C.
`CCc1cn(-c2ccccn2)c2c1C(=O)CC(C)(C)C2` [Example 1, 6,6-Dimethyl 3-Ethyl-1-(pyridin-2-yl)-4,5,6,7-tetrahydroindol-4-one] had a melting point of 125 to 127 °C.
The result for `CC1(C)CC(=O)c2c(Cc3ccccc3)cn(-c3ccccn3)c2C1` [Example 19, 6,6-Dimethyl-3-phenylmethyl-1-(pyridin-2-yl)-4,5,6,7-tetrahydroindol-4-one] reads 111 to 113 °C.
Regarding `C=Cc1cn(-c2ccccn2)c2c1C(=O)CC(C)(C)C2` [Example 18, 6,6-Dimethyl-1-(pyridin-2-yl)-3-vinyl-4,5,6,7-tetrahydroindol-4-one], the melting point was 150 to 154 °C.
The result for `CC1(C)CC(=O)c2c(Nc3ccccc3)cn(-c3ccccn3)c2C1` [Example 22, 6,6-Dimethyl-3-phenylamino-1-(pyridin-2-yl)-4,5,6,7-tetrahydroindol-4-one] reads 135 to 138 °C; that for `CC1(C)CC(=O)c2c(C(C)(C)C)cn(-c3ccccn3)c2C1` [Example 2, 6,6-Dimethyl-3-(1,1-dimethylethyl)-1-(pyridin-2-yl)-4,5,6,7-tetrahydroindol-4-one], 143 to 145 °C.
The compound `CC1(C)CC(=O)c2c(Nc3ccccn3)cn(-c3ccccn3)c2C1` [Example 23, 6,6-Dimethyl-1-(pyridin-2-yl)-3-(pyridin-2-ylamino)-4,5,6,7-tetrahydroindol-4-one] gave a melting point of 180 to 183 °C.
Then `CC1(C)CC(=O)c2c(SCc3ccccc3)cn(-c3ccccn3)c2C1` [Example 14, 6,6-Dimethyl-3(phenylmethyl)thio-1-(pyridin-2-yl)-4,5,6,7-tetrahydroindol-4-one], with 190 to 192 °C.
The result for `CC1(C)CC(=O)c2c(-c3ccccc3)cn(-c3ccccn3)c2C1` [Example 16, 6,6-Dimethyl-3-phenyl-1-(pyridin-2-yl)-4,5,6,7-tetrahydroindol-4-one] reads 160 to 162 °C.
As to `CCc1cn(-c2ncccn2)c2c1C(=O)CC(C)(C)C2` [Example 4, 3-Ethyl-6,6-dimethyl-1-(pyrimidin-2-yl)-4,5,6,7-tetrahydroindol-4-one], the melting point is 111 to 114 °C.
Take `CC1(C)CC(=O)c2c(-c3ccccn3)cn(-c3ccccn3)c2C1` [Example 17, 6,6-Dimethyl-1-(pyridin-2-yl)-3-(pyridin-2-yl)-4,5,6,7-tetrahydroindol-4-one]: the melting point is 171 to 174 °C.
